Results as given in ChEMBL document CHEMBL3621055, “Mechanism of forming trimer, self-assembling nano-particle and inhibiting tumor growth of small molecule CIPPCT” (Medchemcomm, 2014).
The source made the active and inactive calls. The calls are words filed in the database; no cut-off is given here.

Legend:
[1] = tested on: CCRF S-180; assay: Antitumor activity against mouse S180 cells allografted in ICR mouse assessed as tumor growth inhibition at 2 umol/kg, ip qd for 7 days measured 24 hrs after last dose; type: functional, organism-based
[2] = tested on: HL-60; assay: Cytotoxicity against human HL60 cells after 48 hrs by MTT assay; type: functional, cell-based; settings: HL-60, 48 h
[3] = tested on: HepG2; assay: Drug uptake in human HepG2 cells at 10^-10 M after 15 to 240 mins by fluorescence assay; type: ADME, cell-based; settings: hepg2, 0.0001 µM
[4] = tested on: CCRF S-180; assay: Antitumor activity against mouse S180 cells allografted in ICR mouse assessed as decrease of uPA levels in serum administered as po qd for 7 days measured 24 hrs after last dose; type: functional, organism-based
[5] = tested on: CCRF S-180; assay: Antitumor activity against mouse S180 cells allografted in ICR mouse assessed as tumor growth inhibition administered as po qd for 7 days measured 24 hrs after last dose; type: functional
[6] = tested on: CCRF S-180; assay: Antitumor activity against mouse S180 cells allografted in ICR mouse assessed as tumor growth inhibition at 4 umol/kg, po qd for 7 days measured 24 hrs after last dose; type: functional, organism-based
[7] = tested on: HepG2; assay: Cytotoxicity against human HepG2 cells after 48 hrs by MTT assay; type: functional, cell-based; settings: HepG2, 48 h
[8] = tested on: SW480; assay: Cytotoxicity against human SW480 cells after 48 hrs by MTT assay; type: functional, cell-based; settings: SW480, 48 h
[9] = tested on: HT-29; assay: Cytotoxicity against human HT-29 cells after 48 hrs by MTT assay; type: functional, cell-based; settings: HT-29, 48 h
[10] = tested on: HeLa; assay: Cytotoxicity against human HeLa cells after 48 hrs by MTT assay; type: functional, cell-based

Row | Drug uptake [3] | SMILES | inhibition [1] | IC50 [2] [µM] | Activity [4] | MED [5] [µmol/kg] | inhibition [5] | inhibition [6] | IC50 [7] [µM] | IC50 [8] [µM] | IC50 [9] [µM] | IC50 [10] [µM]
1 | – | COc1cccc2c1C(=O)c1c(O)c3c(c(O)c1C2=O)C[C@@](O)(C(=O)CO)C[C@@H]3O[C@H]1C[C@H](N)[C@H](O)[C@H](C)O1 | Active | – | – | – | – | – | – | – | – | –
2 | Active | C[C@H](O)[C@H](NC(=O)[C@H](Cc1c[nH]c2ccccc12)NCC[C@H]1c2[nH]c3ccccc3c2C[C@H]2C(=O)N3CCC[C@H]3C(=O)N21)C(=O)OCc1ccccc1 | – | > 10 | Dose-dependent effect | 0.16 | Dose-dependent effect | Active | > 60 | > 100 | > 20 | > 100
